Results from patent publication US5594001A, “Polycyclic systems, and derivatives thereof, as neurotransmitter release enhancers useful in the treatment of cognitive disorders” (The DuPont Merck Pharmaceutical Company, priority 1994, dated 1997).

How the values were obtained:
[1] = system: stimulus-induced acetylcholine release, slices from the parietal cortex; assay: Neurotransmitter (ACh) release assay, rat cortex slices, K+ stimulated; type: cell-based, rat (male Wistar); settings: for EC50: Table III
Protocol: The neurotransmitter release activities of the compounds of this invention were determined using standard biochemical assay procedures for example, the neurotransmitter release assay as described below.
Neurotransmitter release assay.
The neurotransmitter (Ach) release activities of the compounds of this invention were determined by the assay as described by Nickolson, et al., Drug Development Research, (1990) 19: 285-300, a modification of the procedure described by Mulder, et al., Brain Res., (1974) 70: 372.
Male Wistar rats (Charies River) weighing 175-200 grams were used. Rats were decapitated and brains were dissected immediately. Slices (0.3 mm thick) from the parietal cortex were prepared (approximately 100 mg wet weight) and were incubated in 10 ml KrebsRinger medium (KR) containing NaCl (116 mM), KCl (3 mM), CaCl2 (1.3 mM), MgCl2 (1.2 mM), KH2 PO4 (1.2 mM), Na2 SO4 (1.2 mM), NaHCO3 (25.0 mM), and glucose (11.0 mM), to which was added 10 uCi ^3 H-choline (specific activity approximately 35 Ci/mM; NEN) and […] unlabeled choline to give a final concentration of one micromole. The brain preparations were incubated for 30 min. at 37° C. under a steady flow of 95% O2 /5% CO2. Under these conditions, part of the radioactive choline taken up by the preparation was converted into radioactive acetylcholine (ACh) by the cholinergic nerve endings stored in synaptic vesicles, and released upon depolarization by high potassium ion (K+) containing media.
After labelling of the ACh stores, the slices were washed three times with non-radioactive KR medium and transferred to a superfusion apparatus to measure the drug effects on ACh release. The superfusion apparatus consisted of 10 thermostated glass columns of 5 mm diameter that were provided with GF/F glass fiber filters to support the slices (approximately 10 mg tissue/column). Superfusion was carried out in KR-medium (0.3 ml/min.) containing […] hemicholine-3 (HC-3). The HC-3 prevents the reuptake of choline formed during the superfusion from phospholipids and released ACh, which would be converted into unlabeled ACh and released in preference to the preformed labeled ACh. The medium was delivered by a 25-channel peristaltic pump (Ismatec by Brinkman) and warmed to 37° C. in a thermostated stainless steel coil before entering the superfusion column. Each column was provided with a 4-way slider valve (Beckmann instruments) which allowed rapid change of low to high K+/KR-medium, and with two 10-channel 3-way valves that were used to change from drug-free to drug-containing low and high K+/KR-medium. After 15 min. of washout of non-specifically bound radioactivity, collection of 4 min. fractions was initiated. After three 4 min. collections, the original medium was changed to a KR-medium in which the KCl concentration had been increased to 25 mM (high K+ medium) (S1). Depolarization-induced stimulation of release by high K+/KR-medium lasted for 4 min. Drug free low and high K+/KR-media were then substituted by drug- and vehicle-containing low- and high-K+/KR-medium, and superfusion was continued for three 4 min. collections with low K+/KR-medium, one 4 min. collection with high K+/KR-medium (s2), and two 4 min. collections with low K+/KR-medium.
Drug was added to the media by 100-fold dilutions of appropriate concentrations of the drug (in 0.9% saline) with either low- or high-K+/KR-medium. For comparative purposes, linopirdine was also run.
All superfusion fractions were collected in liquid scintillation counting vials. After superfusion, the slices were removed from the superfusion columns and extracted with 1.0 ml of 0.1N HCl. Liquiscint (NEN) counting fluid (12 ml) was added to superfusion fractions and extracts, and the samples were counted in a Packard Tricarb Liquid Scintillation Counter. No corrections were made for quenching. […]

[2] = system: ACh level in the rat hippocampus; assay: Microdialysis, ACh levels in the rat hippocampus in vivo; design: species or system rat (male Wistar); settings: for AUC, Area % under the curve / Peak, maximal % increase of ACh release over baseline / time of Peak after administration / Duration, minutes of release above statistical significance: Table IV
Protocol: Male Wistar Rats are anaesthetized and guide cannulas stereotaxically implanted into the brain at the level of the dorsal hippocampus. Following a minimum recovery period of 72 h, dialysis probes (0.5 mm diameter, 4.0 mm long, from BAS) are inserted into the hippocampus through the guide cannulas. The probes are perfused at a rate of 2 μl/min with artificial cerebrospinal fluid containing 100 μM physostigmine sulfate (a cholinesterase inhibitor). Rats are allowed to acclimate for 2 hours prior to sample collection. Dialysate samples are collected every 20 min (40 μl) and immediately injected onto a high performance liquid chromatograph equipped for electrochemical detection (HPLC-EC) of acetylcholine (ACh). Following collection of 3 baseline samples, drugs or vehicle control are administered in 0.01 ml/g body weight and dialysate samples are collected for an additional 3 h. The ACh peak heights of the 3 samples prior to drug administration are averaged together to determine baseline ACh levels. ACh peak heights post drug administration are measured and used to determine percent change over baseline ACh levels. At the end of experiments, probe placement is verified histologically.
ACh is separated by reverse phase chromatography (Hamilton PRP-1 column 150×4.5 mm) and converted to acetate, betaine and hydrogen peroxide on an immobilized enzyme reactor column (BAS). Hydrogen peroxide is then detected electrochemically. Mobile phase for the chromatography consists of 0.2M Na2 HPO4, 0.1 mM EDTA, 0.5 mM SOS, 0.9 mM TMA.Cl, with pH adjusted to 8.0 with phosphoric acid and […] Kathon CG (ESA) added to each liter of mobile phase to retard bacterial growth.
FIGS. 1 and 2 show the effects of fluorine substitution to the pendant groups of the anthrone and azafluorene core series on the ability of compounds to increase the level of ACh in the rat hippocampus in vivo. All compounds were tested at 5 mg/kg except Ex. No 64 which was administered at 1 mg/kg. […] This was observed even though the compound was administered by a route (i.p.) which should lead to greater bioavailability than the oral route. Example 68 of the present invention, the bis-fluorinated analog of Example 611 or U.S. Pat. No. 5,173,489, on the other hand, led to a 2-fold increase in ACh levels which was maintained for over 1 hour (FIG. 1). The anthrone compound Ex. No. 440 of U.S. Pat. No. 5,173,489, at 5 mg/kg, led to a peak ACh level of 72% over baseline (FIG. 2). Ex. No. 64 of the present invention, which is the bis-fluoro analog of Ex. No. 440 of U.S. Pat. No. 5,173,489, at 1 mg/kg, led to a delayed increase in ACh levels reaching a peak of over 100% above baseline (FIG. 2). In contrast to the observed effects of Example 440 of U.S. Pat. No. 5,173,489, the increase in ACh level after administration of Example 64 of the present invention was maintained for the entire duration of testing (3 hours).

[3] = 5 mg/kg, vehicle water, NSP = no significant points
[4] = 1 mg/kg, vehicle methocel, NSP = no significant points
[5] = 5 mg/kg, vehicle methocel, NSP = no significant points

## Fc1cc(CC2(Cc3ccncc3)c3ccccc3-c3sccc32)ccn1 (centres unmarked) [Example 7, 2-Fluoro-4-[4-(4-pyridinylmethyl)-4H-indeno[1,2-B]thiophen-4-ylmethyl]-pyridine]
[1]; Table II, 10 μM, % increase of drug-induced ACh release
  activation at 10 µM: 439%
[2]; 5 mg/kg, vehicle water
  AUC, Area % under the curve: 235 ± 87%
  Peak, maximal % increase of ACh release over baseline: 53 ± 19%
  time of Peak after administration: 180 min
[2]; [3]
  Duration, minutes of release above statistical significance: NSP

## Fc1cc(CC2(Cc3ccncc3)c3ccccc3-c3ncccc32)ccn1 (centres unmarked) [Example 62]
[1]
  EC50: 300 nM
[2]; 5 mg/kg, vehicle water
  AUC, Area % under the curve: 160 ± 187%
  Peak, maximal % increase of ACh release over baseline: 47 ± 32%
  time of Peak after administration: 40 min
[2]; [3]
  Duration, minutes of release above statistical significance: NSP
[2]; 10 mg/kg, vehicle water
  AUC, Area % under the curve: 221 ± 85%
  Duration, minutes of release above statistical significance: > 40 min
  Peak, maximal % increase of ACh release over baseline: 52 ± 10%
  time of Peak after administration: 20 min

## O=C1c2ccccc2C(Cc2ccnc(F)c2)(Cc2ccnc(F)c2)c2ccccc21 [Example 64, 10,10-Bis((2-fluoro-4-pyridinyl)methyl)-9(10H)-anthracenone]
[1]
  EC50: 660 nM
[2]; 1 mg/kg oral, FIG. 2, delayed increase
  peak ACh level above baseline: over 100%
[2]; 1 mg/kg oral, FIG. 2, entire duration of testing
  time for which the increase in ACh level was maintained: ≥ 3 h
[2]; 0.5 mg/kg, vehicle methocel
  AUC, Area % under the curve: 253 ± 156%
  Peak, maximal % increase of ACh release over baseline: 40 ± 21%
  time of Peak after administration: 40 min
[2]; 0.5 mg/kg, vehicle methocel, NSP = no significant points
  Duration, minutes of release above statistical significance: NSP
[2]; 1 mg/kg, vehicle methocel
  AUC, Area % under the curve: 711 ± 158%
  Peak, maximal % increase of ACh release over baseline: 115 ± 27%
  time of Peak after administration: 180 min
[2]; [4]
  Duration, minutes of release above statistical significance: >

## Fc1cc(CC2(Cc3ccncc3)c3ccccc3Oc3ccccc32)ccn1 [Example 65, 9-((2-Fluoro-4-pyridinyl)methyl)-9-(4-pyridinylmethyl)-9H-xanthene]
[1]
  EC50: 820 nM
[2]; 5 mg/kg, vehicle methocel
  AUC, Area % under the curve: 147 ± 69%
  Peak, maximal % increase of ACh release over baseline: 40 ± 11%
  time of Peak after administration: 20 min
[2]; [5]
  Duration, minutes of release above statistical significance: 60 min

## Fc1cc(CC2(Cc3ccnc(F)c3)c3ccccc3Oc3ncccc32)ccn1 [Example 67, 9,9-Bis((2-fluoro-4-pyridinyl)methyl)-4-azaxanthene]
[1]
  EC50: 640 nM
[2]; 1 mg/kg, vehicle methocel
  AUC, Area % under the curve: 666 ± 212%
  Peak, maximal % increase of ACh release over baseline: 123 ± 62%
  time of Peak after administration: 200 min
[2]; [4]
  Duration, minutes of release above statistical significance: >
[2]; 5 mg/kg, vehicle methocel
  AUC, Area % under the curve: 1423 ± 595%
  Peak, maximal % increase of ACh release over baseline: 199 ± 80%
  time of Peak after administration: 160 min
[2]; [5]
  Duration, minutes of release above statistical significance: >

## Fc1cc(CC2(Cc3ccnc(F)c3)c3ccccc3-c3ncccc32)ccn1 [Example 68, 5,5-Bis((2-fluoro-4-pyridinyl)methyl)-5H-indeno[1,2-b]pyridine]
[1]
  EC50: 760 nM
[2]; 5 mg/kg oral, FIG. 1
  increase in ACh levels: 2 fold
  time for which the increase in ACh levels was maintained: over 1 hour
[2]; 1 mg/kg, vehicle methocel
  AUC, Area % under the curve: 304 ± 88%
  Peak, maximal % increase of ACh release over baseline: 74 ± 29%
  time of Peak after administration: 100 min
[2]; [4]
  Duration, minutes of release above statistical significance: 120 min
[2]; 2 mg/kg, vehicle water
  AUC, Area % under the curve: 240 ± 82%
  Peak, maximal % increase of ACh release over baseline: 47 ± 12%
  time of Peak after administration: 40 min
[2]; 5 mg/kg, vehicle methocel
  AUC, Area % under the curve: 942 ± 324%
  Peak, maximal % increase of ACh release over baseline: 201 ± 68%
  time of Peak after administration: 80 min
[2]; [5]
  Duration, minutes of release above statistical significance: > 80 min
[2]; 5 mg/kg, vehicle water
  AUC, Area % under the curve: 871 ± 272%
  Peak, maximal % increase of ACh release over baseline: 121 ± 25%
  time of Peak after administration: 100 min
[2]; [3]
  Duration, minutes of release above statistical significance: 120 min

## Fc1cc(CC2(Cc3ccnc(F)c3)c3cccnc3-c3sccc32)ccn1 [Example 69, 4,4-Bis((2-fluoro-4-pyridinyl)methyl)-4H-thieno[3',2':4,5]cyclopenta[1,2-b]pyridine]
[1]
  EC50: 650 nM
[2]; 5 mg/kg, vehicle water
  AUC, Area % under the curve: 285 ± 40%
  Peak, maximal % increase of ACh release over baseline: 44 ± 14%
  time of Peak after administration: 20 min
[2]; [3]
  Duration, minutes of release above statistical significance: 40 min

## COc1ccc2c(c1)C(Cc1ccnc(F)c1)(Cc1ccnc(F)c1)c1ccccc1-2 [Example 71, 9,9-Bis((2-fluoro-4-pyridinyl)methyl)-2-methoxyfluorene]
[1]
  EC50: 1240 nM
[2]; 5 mg/kg, vehicle methocel
  AUC, Area % under the curve: 126 ± 74%
  Peak, maximal % increase of ACh release over baseline: 34 ± 16%
  time of Peak after administration: 60 min
[2]; [5]
  Duration, minutes of release above statistical significance: NSP

## COc1ccc2c(c1)C(Cc1ccnc(F)c1)(Cc1ccnc(F)c1)c1cccnc1O2 [Example 72, 9,9-Bis((2-fluoro-4-pyridinyl)methyl)-7-methoxy-4-azaxanthene]
[1]
  EC50: 850 nM
[2]; 5 mg/kg, vehicle methocel
  AUC, Area % under the curve: 138 ± 109%
  Peak, maximal % increase of ACh release over baseline: 34 ± 22%
  time of Peak after administration: 60 min
[2]; [5]
  Duration, minutes of release above statistical significance: NSP

## Fc1cc(CC2(Cc3ccnc(F)c3)c3ccccc3-c3nccnc32)ccn1 [Example 80, 9,9-Bis((2-fluoro-4-pyridinyl)methyl)-9H-indeno-[1,2-b]pyrazine]
[1]
  EC50: 2330 nM

## Nc1cccc2c1C(Cc1ccnc(F)c1)(Cc1ccnc(F)c1)c1ccccc1-2 [Example 96, 9,9-Bis((2-fluoro-4-pyridinyl)methyl)-9H-fluoren-1-amine]
[1]
  EC50: 570 nM
